From patent publication US11618738B2, “Compound and application thereof in treating inflammation or inflammation-related diseases” (SICHUAN CENTER FOR TRANSLATIONAL MEDICINE OF TRADITIONAL …, priority 2017, dated 2023)
Where two headings read alike, the source gives them in different places. One block for each molecule: values may come before it.

Legend:
[1] = tested on: PGE2 induced by LPS; assay: Inhibition of LPS-induced PGE2 in RAW 264.7 cells (ELISA); format: cell-based, mice
Description: (§1) This example is taken from a previous publication by Song et al.^[1]. In brief, mice RAW 264.7 cells were treated with increasing doses of each test compound at 37° C. for 1 hour. Thereafter, the cells were attacked with 20 μL/well of LPS (equivalent to a final concentration of 100 ng/mL). The cells were further incubated overnight at 37° C. A commercial ELISA assay kit obtained from R&D Systems (Minneapolis, Minn.) was used to determine the level of PGE2 in the supernatant, and three parallel experiments were performed. The optical density of each well was measured using a BioTek Epoch microplate reader (Winooski, Vt.) set to 450 nm. The NO study was performed in a similar manner, but Greiss reagent was used to monitor the level of NO, and the results were read at 550 nm.

[2] = tested on: xylene-induced ear swelling in mice; assay: Xylene-induced ear swelling in mice; format: in vivo; conditions: for Swelling rate (%): 20 minutes after xylene, mean ± SD; for ear swelling rate versus normal group (in words): the three dose groups (6.25, 12.5, 25 mg/kg)
Text: Xylene applied to the ears of mice can cause acute inflammatory swelling of the ears of the mice. The anti-inflammatory effects of the tested drugs were observed by the degree of swelling of the ears of the mice after the inflammation.
Taking Kunming mice, SPF grade, half male and half […] (18-22 g/mouse) and randomly grouping them according to body weight. The normal control group was given 0.5% CMC-Na suspension by gavage administration, and the other groups were given corresponding drugs (0.2 ml/10 g) for 3 consecutive days, once a day. 0.5 h after the last administration, 0.02 ml of xylene was applied to the right auricle of each group of mice, and the left side was not applied as a control, establishing a mouse ear swelling model. 20 minutes after the inflammation, the mice were killed by cervical dislocation. Both ears were cut along the baseline of the auricle, and the discs on the same part of the left and right ears were punched out with a punch (6 mm of diameter) and weighed.

[3] = tested on: NO induced by LPS; assay: Inhibition of LPS-induced NO in RAW 264.7 cells (Greiss reagent); format: cell-based, mice; conditions: for IC50: Mus musculus, RAW264.7
Text: Nitric oxide (NO) is a signaling molecule that plays a key role in the pathogenesis of inflammation. Under abnormal conditions, NO is a pro-inflammatory mediator that causes inflammation due to its overproduction. Therefore, the regulation of elevated NO levels by stimulants (such as LPS) has been widely used as a screening method to identify anti-inflammatory drugs. Since NO is oxidized into nitrite and nitrate, the determination of total NO2^−/NO3^− is a conventional method for determining NO levels, and Griess reagent is usually used in this type of experiment.
as §1

[4] = tested on: 10% egg white-induced foot swelling in rats; assay: 10% egg white-induced foot swelling in rats; format: in vivo; conditions: for Foot swelling: mean ± SD
Text: Injecting 10% egg white into rat paws can cause early acute inflammation such as redness, heat, swelling, and pain in rat paws. In this experiment, the anti-inflammatory effects of UTLOH series compounds were observed by the degree of swelling of the paws of rats after inflammation.
SPF grade SD rats, half female and half male (100-120 g/mouse) were randomly grouped according to body weight. Each group was given the corresponding drugs by gavage, once a day, for 3 consecutive days, with a gavage volume of 1 ml/100 g. Before the experiment, the ankle joint of the right hind foot of each group of rats was marked, and the foot volume of each group of rats was measured twice with a rat foot volume meter, and the average of the two times was taken as the […]. 30 minutes after the last administration, the rats in each group were given a subcutaneous needle in the right hind paw, and injected with 10% fresh egg white solution 0.1 ml/mouse to cause inflammation, establishing a rat model of paw swelling. The post-inflamed foot volume in mice was measured twice at 1 h, 2 h, 3 h, and 4 h after inflammation, and the average of the two times was taken as the post-inflamed foot volume. The normal group was given 1 ml/100 g volume of 0.5% CMC-Na solution by gavage according to body weight.

[5] = tested on: writhing response of mice with acetic acid; assay: Writhing response of mice induced by intraperitoneal glacial acetic acid; format: in vivo; conditions: for Writhing reaction inhibition percentage (%): mean ± SD; for writhing response in mice induced by acetic acid (in words): the four dose groups (25-200 mg/kg)
Description: After glacial acetic acid is injected into the abdominal cavity of mice, it can cause inflammatory pain and cause writhing reaction in mice. In this experiment, the analgesic effects of UTLOH compounds were observed by the number of writhing times in mice after intraperitoneal injection of glacial acetic acid.
Taking 100 KM mice, SPF grade, half male and half […] (18-22 g/mouse), and randomly grouping them according to their body weight. Except that the blank control group was given 0.5% CMC-Na suspension by gavage administration, the other groups were given the corresponding drugs by gavage for 3 continuous days, once a day, with a gavage volume of 0.2 ml/10 g. 30 minutes after the administration on the 3rd day, each group of mice was intraperitoneally injected with 0.6% glacial acetic acid, 0.1 ml/10 g, to create writhing reaction model in mice.

[6] = 6.25 mg/kg once a day for 3 days
[7] = 12.5 mg/kg once a day for 3 days
[8] = 10 mg/kg gavage once a day for 3 days, 1 h after inflammation
[9] = 10 mg/kg gavage once a day for 3 days, 2 h after inflammation
[10] = 10 mg/kg gavage once a day for 3 days, 3 h after inflammation
[11] = 10 mg/kg gavage once a day for 3 days, 4 h after inflammation
[12] = 20 mg/kg gavage once a day for 3 days, 1 h after inflammation
[13] = 20 mg/kg gavage once a day for 3 days, 2 h after inflammation
[14] = 20 mg/kg gavage once a day for 3 days, 3 h after inflammation
[15] = 20 mg/kg gavage once a day for 3 days, 4 h after inflammation
[16] = 40 mg/kg gavage once a day for 3 days, 1 h after inflammation
[17] = 40 mg/kg gavage once a day for 3 days, 2 h after inflammation
[18] = 40 mg/kg gavage once a day for 3 days, 3 h after inflammation
[19] = 40 mg/kg gavage once a day for 3 days, 4 h after inflammation
[20] = 25 mg/kg gavage once a day for 3 days
[21] = 50 mg/kg gavage once a day for 3 days
[22] = 100 mg/kg gavage once a day for 3 days
[23] = 200 mg/kg gavage once a day for 3 days

IC50 ([3]; RAW 264.7 cells, LPS 100 ng/mL, overnight, read-out: NO IC50 (μM), class): < 10 µM | IC50 ([3]; RAW 264.7 cells, LPS 100 ng/mL, overnight, read-out: NO IC50 (μM), value in brackets): 1.4 µM
SMILES: Cc1cc(C(=O)Nc2ccccc2O)no1 [UTLOH-4a]
PGE2 inhibition (%) ([1]; RAW 264.7 cells, LPS 100 ng/mL, overnight, test concentration not given): 98.5% | inhibition on PGE2 compared to leflunomide (in words) ([1]; compared to leflunomide): stronger | Swelling rate (%) [2, 6]: 49.77 ± 22.15 % | Swelling rate (%) [2, 7]: 50.59 ± 21.52 % | Swelling rate (%) ([2]; 25 mg/kg once a day for 3 days): 49.87 ± 16.44 % | ear swelling rate versus normal group (in words) [2]: significantly lower | inhibition of LPS-induced NO compared with leflunomide and teriflunomide (in words) ([3]; compared with leflunomide and teriflunomide): more strongly | Foot swelling [4, 8]: 0.50 ± 0.08 mL | Foot swelling [4, 9]: 0.79 ± 0.07 mL | Foot swelling [4, 10]: 0.63 ± 0.13 mL | Foot swelling [4, 11]: 0.47 ± 0.13 mL | Foot swelling [4, 12]: 0.55 ± 0.11 mL | Foot swelling [4, 13]: 0.79 ± 0.14 mL | Foot swelling [4, 14]: 0.64 ± 0.15 mL | Foot swelling [4, 15]: 0.48 ± 0.12 mL | Foot swelling [4, 16]: 0.65 ± 0.18 mL | Foot swelling [4, 17]: 0.77 ± 0.11 mL | Foot swelling [4, 18]: 0.57 ± 0.15 mL | Foot swelling [4, 19]: 0.48 ± 0.12 mL | foot swelling compared with the normal group (in words) ([4]; low, medium- and high-dose group, 1 h after inflammation): significantly reduce | Writhing reaction inhibition percentage (%) [5, 20]: 21.63 ± 29.24 % | Writhing reaction inhibition percentage (%) [5, 21]: 24.26 ± 10.11 % | Writhing reaction inhibition percentage (%) [5, 22]: 28.48 ± 15.74 % | Writhing reaction inhibition percentage (%) [5, 23]: 23.05 ± 10.08 % | writhing response in mice induced by acetic acid (in words) [5]: significantly inhibit

IC50 ([3]; same method as Table 1, given as 10-50 μM, or <10 μM, read-out: IC50 of NO): ≤ 50 µM
SMILES: Cc1cc(C(=O)Nc2ccc(O)cc2O)no1 [UTLOH-4e]
PGE2 inhibition rate (in words) ([1]; same experimental method as Table 1): very good | Swelling rate (%) [2, 6]: 53.22 ± 28.01 % | Swelling rate (%) [2, 7]: 42.98 ± 23.60 % | Swelling rate (%) ([2]; 25 mg/kg once a day for 3 days): 41.29 ± 21.75 % | dose dependence of ear swelling rate (in words) ([2]; the higher the dose, the lower the ear swelling rate): good dose-dependent | ear swelling rate versus normal group (in words) [2]: significantly lower | Foot swelling [4, 8]: 0.67 ± 0.15 mL | Foot swelling [4, 9]: 0.66 ± 0.15 mL | Foot swelling [4, 10]: 0.60 ± 0.16 mL | Foot swelling [4, 11]: 0.44 ± 0.07 mL | Foot swelling [4, 12]: 0.69 ± 0.08 mL | Foot swelling [4, 13]: 0.55 ± 0.13 mL | Foot swelling [4, 14]: 0.51 ± 0.09 mL | Foot swelling [4, 15]: 0.38 ± 0.12 mL | Foot swelling [4, 16]: 0.69 ± 0.13 mL | Foot swelling [4, 17]: 0.57 ± 0.17 mL | Foot swelling [4, 18]: 0.49 ± 0.15 mL | Foot swelling [4, 19]: 0.45 ± 0.16 mL | foot swelling degree compared with the normal group (in words) ([4]; low-dose group, 1 h after inflammation): significantly reduced | foot swelling degree compared with the normal group (in words) ([4]; medium-dose group and high-dose group, 1 h, 2 h and 3 h after inflammation): significantly reduced | Writhing reaction inhibition percentage (%) [5, 20]: 36.52 ± 10.08 % | Writhing reaction inhibition percentage (%) [5, 21]: 35.63 ± 17.03 % | Writhing reaction inhibition percentage (%) [5, 22]: 39.54 ± 15.18 % | Writhing reaction inhibition percentage (%) [5, 23]: 30.14 ± 17.18 % | writhing response in mice induced by acetic acid (in words) [5]: significantly inhibit
